Experimental data from US20050272677A1, “Delivery of a substance to a pre-determined site” (priority 2002, published 2005).
Like-named read-outs stand apart in the source and are kept apart here.

Tests used:
[1] = Gelation experiment (gel formation in solvents); format: physicochemical
Description: To obtain a gel or to thicken the solvent, the compound is mixed with the required solvent or a mixture of solvents in an amount between 0.01 and 50 wt. %, based on the weight of the composition. Typically, the dissolution of the components will be performed by heating (in some cases it may be helpful to homogenize the components, e.g., vortex) them together at temperatures of 20° C. to 200° C., preferably 50° C. to 150° C. Cooling these hot solutions to a preferred temperature in the range of −20° C. to 100° C., preferably 4° C. to 100° C. affords the gel or thickened solvent. […] In an alternative embodiment, the gelling agent is first dissolved in a polar or apolar solvent followed by the addition of another solvent or solvent mixture, thereby causing gelation to take place.
It will be understood that the use of the present gelling agents or thickeners to prepare a gel or to thicken a composition is also encompassed by the invention. As is well-known, gelling behavior of compounds or compositions is highly unpredictable. […] Preferably, the gelling phenomenon is thermoreversible.
In a typical gelation experiment, a carefully weighed amount of the dithienylcyclopentene derivative under investigation and 1 ml of the solvent are placed in a test tube, which is sealed and then heated until the compound is dissolved. The solution is allowed to cool to room temperature. […] The gelation process could be followed by UV-vis and CD spectroscopy as depicted in FIG. 58. At low concentrations (0.35 mM), compound D is dissolved in toluene. […] Increasing the concentration to 1.8 mM causes gelation of the solvent, which is accompanied by a change of the UV-visible spectrum, together with the appearance of a strong CD signal at 323 nm (FIG. 58, panels (a) and (c)). Similar changes in the UV-vis and CD spectrum are observed upon gelation of the 1.8 mM solution of D in toluene by cooling to a temperature below the sol-gel phase transition (from here on, referred to as gel(o)). From a plot of the increase of the CD signal versus the temperature, the sol-gel phase transition temperature of gel(o) was determined to be 29° C. for a 1.8 mM solution of D in toluene.

[2] = pH as stimulus for gel-to-sol and sol-to-gel transitions; format: physicochemical
Source text: Addition of base to a gel of 1 led to a decrease in melting temperature of the gel. Above pH>4.06, gelation was no longer observed (reversible process; see FIG. 50).
Compound 15 can gelate water and undergoes a sol-to-gel transition around pH=4.93 at room temperature (for a 0.5 wt % gel).

[3] = In vivo delivery of luciferase DNA complexed with Sunfish amphiphiles; set-up: species or system mouse; conditions: for gene expression (Luciferase) after intravenous injection of complexed DNA: 24 hours, efficiency order SF-46>SF-36>SF-6>SF-30>SF-63
Description: Sunfish (SF) amphiphiles were tested and compared to DOTAP, a commercially available amphiphile (Avanti Polar Lipids). The used plasmid DNA codes for Luciferase, which is expressed upon transfection. Luciferase activity represents the efficiency of transfection. Liposomes were prepared by drying the Sunfish amphiphiles or DOTAP in glass tubes under a nitrogen flow followed by being under vacuum for one hour. The lipid film was resuspended in 20% sucrose by mixing and warming up for five minutes to 60° C. in a water bath. The liposomal suspension was then sonicated for three minutes. For lipoplexes formation, plasmid DNA (30 μg/mouse) diluted in 20% sucrose was added to the liposomes (450 nmol/mouse) under mixing. The lipoplexes were allowed to rest at room temperature for […] and were intravenously injected (150 μl) in male BALB/c mice. Organs (lungs, heart, liver, spleen and kidneys) were collected 24 hours after injection for analysis. Luciferase activity was measured in homogenates of the different organs and related to a standard curve obtained with purified recombinant Luciferase.

[4] = Gelation in the presence of surfactants and polymeric micelles; format: physicochemical; set-up: key: g = gel; i = insoluble; p = precipitate; sol = soluble
[5] = as above; format: physicochemical; set-up: key: G = gel; C = crystalline; G^a: ^a= not stable
[6] = tested on: pB104 strain (MscL null E. coli); test: Growth assay of MscL mutants on agar plates with or without IPTG; format: cell-based; set-up: key: ++++: growth equal to cells expressing wild-type MscL; growth is indicated by ++++ to −; growth is indicated by ++++ to −; growth is indicated by ++++ to −; −: an absence of growth; conditions: pB104 with Lac-inducible plasmid; for Growth on agar plates +IPTG: with IPTG; for Growth on agar plates −IPTG: without IPTG
Description: The constructs of the MscL-6His mutants were constructed using standard molecular biology techniques. The mutants were tested in the pB104 strain (MscL null E. coli) by a growth assay on agar plates with or without IPTG (K. Yoshimura et al., 1999, Biophys. J. 77:1960-1972).
The first phenotype (++) grows like the single G22S mutant.

## COC(=O)[C@H](CCSC)NC(=O)[C@H]1C[C@@H](C(=O)N[C@@H](CCSC)C(=O)OC)C[C@@H](C(=O)N[C@@H](CCSC)C(=O)OC)C1 [9a, CHexAmMetOMe]
[1]
  solvents gelated: both organic solvents and water
[2]
  effect of sufficient amounts of base on the gel: causes dissolution of these gels

## CCCCCCCC/C=C\CCCCCCCCCc1cc[n+](CCCCCCCC/C=C\CCCCCCCC)cc1.[Cl-] [SF-6, 1-(9′-cis-octadecenyl)-4-(10″-cis-nonadecenyl)pyridinium Chloride]
[3]
  gene expression (Luciferase) after intravenous injection of complexed DNA: resulted in gene expression in the lungs

## CCCCCCCC/C=C\CCCCCCCC[n+]1ccc(CCCCCCCCCCCCC)cc1.[Cl-] [SF-30, 1-(9′-cis-octadecenyl)-4-tridecyl-pyridinium Chloride]
[3]
  gene expression (Luciferase) after intravenous injection of complexed DNA: resulted in gene expression in the lungs

## CCCCCCCCCCCCCCCC[n+]1ccc(CCCCCCCCCCCCC)cc1.[Cl-] [SF-36, 1-hexadecyl-4-tridecyl-pyridinium Chloride]
[3]
  gene expression (Luciferase) after intravenous injection of complexed DNA: resulted in gene expression in the lungs

## CCCCCCCC/C=C\CCCCCCCCCc1cc[n+](CCCCCCCCCCCCCCCCCC)cc1 [SF-46, 1-stearyl-4-(10′-cis-nonadecenyl)-pyridinium Chloride]
[3]; 24 hours after i.v. injection
  Luciferase activity in the lungs compared to DOTAP: five times higher
[3]
  gene expression (Luciferase) after intravenous injection of complexed DNA: resulted in gene expression in the lungs

## CSCC[C@H](NC(=O)[C@H]1C[C@@H](C(=O)N[C@@H](CCSC)C(=O)O)C[C@@H](C(=O)N[C@@H](CCSC)C(=O)O)C1)C(=O)O [gelator 1, CHexAmMetOH]
[1]
  solvents gelated: water and lower alcohols
[4]; Pluronic P 105, 5 mg · ml^−1
  Gelation properties: p
[4]; Pluronic P 105, 5 mg · ml^−1, * pH reversible gelation
  Gelation properties: g
[4]; Pluronic P 105, 5 mg · ml^−1, ** pH reversible then thermoreversible gelation
  Gelation properties: p
[4]; Pluronic P 105, 100 mg · ml^−1
  Gelation properties: p
[4]; Pluronic P 105, 100 mg · ml^−1, * pH reversible gelation
  Gelation properties: g
[4]; Pluronic P 105, 100 mg · ml^−1, ** pH reversible then thermoreversible gelation
  Gelation properties: p
[2]; addition of base, reversible
  pH above which gelation was no longer observed: 4.06
[5]; CTAB < CMC, * pH reversible gelation
  Gelation properties: C
[5]; CTAB < CMC, ** pH reversible then thermoreversible gelation
  Gelation properties: C
[5]; CTAB > CMC, * pH reversible gelation
  Gelation properties: C
[5]; CTAB > CMC, ** pH reversible then thermoreversible gelation
  Gelation properties: C
[5]; Lactose der. < CMC, * pH reversible gelation
  Gelation properties: G
[5]; Lactose der. < CMC, ** pH reversible then thermoreversible gelation
  Gelation properties: G
[5]; Lactose der. > CMC, * pH reversible gelation
  Gelation properties: G
[5]; Lactose der. > CMC, ** pH reversible then thermoreversible gelation
  Gelation properties: G
[5]; Nonionic (Lactose der.) < CMC
  Gelation properties: G
[5]; Nonionic (Lactose der.) > CMC
  Gelation properties: G
[5]; SDS < CMC, * pH reversible gelation
  Gelation properties: G
[5]; SDS < CMC, ** pH reversible then thermoreversible gelation
  Gelation properties: G
[5]; SDS > CMC, * pH reversible gelation
  Gelation properties: G
[5]; SDS > CMC, ** pH reversible then thermoreversible gelation
  Gelation properties: G
[5]; anionic (SDS) < CMC
  Gelation properties: G
[5]; anionic (SDS) > CMC
  Gelation properties: G
[5]; cationic (CTAB) < CMC
  Gelation properties: C
[5]; cationic (CTAB) > CMC
  Gelation properties: C

## O=C(NCCOCCO)[C@H](Cc1ccccc1)NC(=O)[C@H]1C[C@@H](C(=O)N[C@@H](Cc2ccccc2)C(=O)NCCOCCO)C[C@@H](C(=O)N[C@@H](Cc2ccccc2)C(=O)NCCOCCO)C1 [gelator 4, CHexAmPheNHCH2CH2OCH2CH2OH]
[1]
  solvents gelated: water and lower alcohols
[4]; Pluronic P 105, 5 mg · ml^−1
  Gelation properties: p
[4]; Pluronic P 105, 100 mg · ml^−1
  Gelation properties: p
[5]; Nonionic (Lactose der.) < CMC
  Gelation properties: G
[5]; Nonionic (Lactose der.) > CMC
  Gelation properties: G
[5]; anionic (SDS) < CMC
  Gelation properties: G
[5]; anionic (SDS) > CMC
  Gelation properties: G
[5]; cationic (CTAB) < CMC
  Gelation properties: G
[5]; cationic (CTAB) > CMC
  Gelation properties: G

## CSCC[C@H](NC(=O)[C@H]1C[C@@H](C(=O)N[C@@H](CCSC)C(=O)NCCc2c[nH]cn2)C[C@@H](C(=O)N[C@@H](CCSC)C(=O)NCCc2c[nH]cn2)C1)C(=O)NCCc1c[nH]cn1 [gelator 15, CHexAmMetHista]
[1]; listed as 15
  solvents gelated: water
[1]; listed as CHex-Am-Met-Hista
  solvents gelated: water and lower alcohols
[2]
  pH of sol-to-gel transition: ~4.93

## CHexAmAspOMe [gelator 8]
[2]
  effect of sufficient amounts of base on the gel: causes dissolution of these gels

## CHexAmMetAmCH2Pyr [gelator 6]
[1]
  solvents gelated: water:alcohol mixtures (1:1)
[1]; DMSO
  state: soluble
[1]; EtOH
  state: soluble
[1]; H2O/EtOH (1:1), weight % 1.0, 0.5, 0.25
  state: gel
[1]; H2O/EtOH (2:1), weight % 0.16
  state: gel
[1]; H2O/EtOH (4:1), weight % 1.0, 0.5
  state: gel (turbid)
[1]; H2O/MeOH (1:1), weight % 0.5, 0.25
  state: gel
[1]; H2O/MeOH (4:1), weight % 1.0, 0.5
  state: gel (turbid)
[1]; H2O, weight % 0.05
  state: insoluble
[1]; MeOH
  state: soluble
[2]; room temperature, 0.5 wt % in MeOH:H2O=1:1
  pH of sol-to-gel transition: ~4.47

## CHexAmPheGlyOH [gelator 3]
[2]
  effect of sufficient amounts of base on the gel: causes dissolution of these gels

B1: M12H/G22S (protein, UniProt P0A742 1-136, looked up, variant M12H G22S)
Large-conductance …: MSIIKEFREFAHRGNVVDLAVSVIIGAAFGKIVSSLVADIIMPPLGLLIGGIDFKQFAVTLRDAQGDIPAVVMHYGVFIQNVFDFLIVAFAIFMAIKLINKLNRKKEEPAAAPAPTKEEVLLTEIRDLLKEQNNRS
[6]
  Growth on agar plates +IPTG: ++
  Growth on agar plates −IPTG: ++++

B2: R13H (protein, UniProt P0A742 1-136, looked up, variant R13H)
Large-conductance …: MSIIKEFREFAMHGNVVDLAVGVIIGAAFGKIVSSLVADIIMPPLGLLIGGIDFKQFAVTLRDAQGDIPAVVMHYGVFIQNVFDFLIVAFAIFMAIKLINKLNRKKEEPAAAPAPTKEEVLLTEIRDLLKEQNNRS
[6]
  Growth on agar plates +IPTG: +++
  Growth on agar plates −IPTG: ++++
